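Test compounds were applied to cells in 96-well plates for 48 hours at 5 doses. Here, GI50 denotes the concentration required for 50% inhibition of growth.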 Active and inactive are the calls of the source. Cut-off read from the data, not from the text of the source: active = GI50 up to about 1.1 µM and inactive = higher.
Experiments:
Assay in all cases: inhibition of tumour cell growth, NCI panel, 48 h
UACC-257 = tested on: UACC-257
MOLT-4 = tested on: MOLT-4
SNB-19 = tested on: SNB-19
U-251 = tested on: U-251
SF-295 = tested on: SF-295
RXF 393 = tested on: RXF 393
CAKI-1 = tested on: CAKI-1
CCRF-CEM = tested on: CCRF-CEM
RPMI-8226 = tested on: RPMI-8226
LOX IMVI = tested on: LOX IMVI
SNB-75 = tested on: SNB-75
ACHN = tested on: ACHN
MDA-MB-231 = tested on: MDA-MB-231
Hs-578T = tested on: Hs-578T
MCF7 = tested on: MCF7
TK-10 = tested on: TK-10
SK-MEL-2 = tested on: SK-MEL-2
OVCAR-8 = tested on: OVCAR-8
T47D = tested on: T47D
SN12C = tested on: SN12C
NCI-H23 = tested on: NCI-H23
SK-OV-3 = tested on: SK-OV-3
NCI-H522 = tested on: NCI-H522
NCI/ADR-RES = tested on: NCI/ADR-RES
K562 = tested on: K562
UACC-62 = tested on: UACC-62
OVCAR-5 = tested on: OVCAR-5
MDA-N = tested on: MDA-N
SF-539 = tested on: SF-539
EKVX = tested on: EKVX
COLO 205 = tested on: COLO 205
NCI-H460 = tested on: NCI-H460
HCT-15 = tested on: HCT-15
KM12 = tested on: KM12
786-0 = tested on: 786-0
OVCAR-4 = tested on: OVCAR-4
UO-31 = tested on: UO-31
HL-60 = tested on: HL-60
MDA-MB-435 = tested on: MDA-MB-435
M14 = tested on: M14
IGROV-1 = tested on: IGROV-1
NCI-H226 = tested on: NCI-H226
HOP-92 = tested on: HOP-92
BT-549 = tested on: BT-549
HCT-116 = tested on: HCT-116
SK-MEL-5 = tested on: SK-MEL-5
SR = tested on: SR
A498 = tested on: A498
DU-145 = tested on: DU-145
SW-620 = tested on: SW-620
HOP-62 = tested on: HOP-62
PC-3 = tested on: PC-3
SF-268 = tested on: SF-268
OVCAR-3 = tested on: OVCAR-3
HCC 2998 = tested on: HCC 2998
HT-29 = tested on: HT-29
SK-MEL-28 = tested on: SK-MEL-28
A549 = tested on: A549

C#CCOC(=O)[C@@H](C)c1ccc2cc(OC)ccc2c1
GI50 (UACC-257): 96.2 µM (inactive)
GI50 (MOLT-4): 32.1 µM (inactive)
GI50 (SNB-19): > 100 µM (inactive)
GI50 (U-251): > 100 µM (inactive)
GI50 (SF-295): > 100 µM (inactive)
GI50 (RXF 393): 86.5 µM (inactive)
GI50 (CAKI-1): > 100 µM (inactive)
GI50 (CCRF-CEM): 31.1 µM (inactive)
GI50 (RPMI-8226): 29.5 µM (inactive)
GI50 (LOX IMVI): 70.1 µM (inactive)
GI50 (SNB-75): 34.3 µM (inactive)
GI50 (ACHN): > 100 µM (inactive)
GI50 (MDA-MB-231): > 100 µM (inactive)
GI50 (Hs-578T): > 100 µM (inactive)
GI50 (MCF7): 63.8 µM (inactive)
GI50 (TK-10): > 100 µM (inactive)
GI50 (SK-MEL-2): > 100 µM (inactive)
GI50 (OVCAR-8): > 100 µM (inactive)
GI50 (T47D): > 100 µM (inactive)
GI50 (SN12C): > 100 µM (inactive)
GI50 (NCI-H23): 63.5 µM (inactive)
GI50 (SK-OV-3): > 100 µM (inactive)
GI50 (NCI-H522): 40.2 µM (inactive)
GI50 (NCI/ADR-RES): 68.2 µM (inactive)
GI50 (K562): 44.8 µM (inactive)
GI50 (UACC-62): > 100 µM (inactive)
GI50 (OVCAR-5): > 100 µM (inactive)
GI50 (MDA-N): > 100 µM (inactive)
GI50 (SF-539): 76.9 µM (inactive)
GI50 (EKVX): 66.2 µM (inactive)
GI50 (COLO 205): > 100 µM (inactive)
GI50 (NCI-H460): > 100 µM (inactive)
GI50 (HCT-15): 28.4 µM
GI50 (KM12): > 100 µM (inactive)
GI50 (786-0): 71.9 µM (inactive)
GI50 (OVCAR-4): 96.8 µM (inactive)
GI50 (UO-31): 94 µM (inactive)
GI50 (HL-60): 15.1 µM (inactive)
GI50 (MDA-MB-435): 66.4 µM (inactive)
GI50 (M14): > 100 µM (inactive)
GI50 (IGROV-1): > 100 µM (inactive)
GI50 (NCI-H226): > 100 µM (inactive)
GI50 (HOP-92): 79.6 µM (inactive)
GI50 (BT-549): 54.5 µM (inactive)
GI50 (HCT-116): > 100 µM (inactive)
GI50 (SK-MEL-5): 40.9 µM (inactive)
GI50 (SR): 17.3 µM (inactive)
GI50 (A498): > 100 µM (inactive)
GI50 (DU-145): > 100 µM (inactive)
GI50 (SW-620): > 100 µM (inactive)
GI50 (HOP-62): > 100 µM (inactive)
GI50 (PC-3): 82.6 µM (inactive)
GI50 (SF-268): > 100 µM (inactive)

COC(=O)NC1=NNC(=O)c2ccccc2N1
GI50 (UACC-257): > 100 µM (inactive)
GI50 (MOLT-4): > 100 µM (inactive)
GI50 (SNB-19): > 100 µM (inactive)
GI50 (U-251): > 100 µM (inactive)
GI50 (SF-295): > 100 µM (inactive)
GI50 (RXF 393): > 100 µM (inactive)
GI50 (CAKI-1): > 100 µM (inactive)
GI50 (OVCAR-3): > 100 µM (inactive)
GI50 (CCRF-CEM): > 100 µM (inactive)
GI50 (RPMI-8226): > 100 µM (inactive)
GI50 (HCC 2998): > 100 µM (inactive)
GI50 (LOX IMVI): > 100 µM (inactive)
GI50 (SNB-75): > 100 µM (inactive)
GI50 (ACHN): > 100 µM (inactive)
GI50 (MDA-MB-231): > 100 µM (inactive)
GI50 (Hs-578T): > 100 µM (inactive)
GI50 (MCF7): > 100 µM (inactive)
GI50 (TK-10): > 100 µM (inactive)
GI50 (SK-MEL-2): > 100 µM (inactive)
GI50 (OVCAR-8): > 100 µM (inactive)
GI50 (T47D): > 100 µM (inactive)
GI50 (SN12C): > 100 µM (inactive)
GI50 (NCI-H23): > 100 µM (inactive)
GI50 (SK-OV-3): > 100 µM (inactive)
GI50 (NCI-H522): > 100 µM (inactive)
GI50 (HT-29): > 100 µM (inactive)
GI50 (NCI/ADR-RES): > 100 µM (inactive)
GI50 (K562): > 100 µM (inactive)
GI50 (UACC-62): > 100 µM (inactive)
GI50 (OVCAR-5): > 100 µM (inactive)
GI50 (MDA-N): > 100 µM (inactive)
GI50 (SF-539): > 100 µM (inactive)
GI50 (EKVX): > 100 µM (inactive)
GI50 (COLO 205): > 100 µM (inactive)
GI50 (NCI-H460): > 100 µM (inactive)
GI50 (HCT-15): > 100 µM
GI50 (KM12): > 100 µM (inactive)
GI50 (786-0): > 100 µM (inactive)
GI50 (OVCAR-4): > 100 µM (inactive)
GI50 (UO-31): > 100 µM (inactive)
GI50 (HL-60): > 100 µM (inactive)
GI50 (MDA-MB-435): > 100 µM (inactive)
GI50 (M14): > 100 µM (inactive)
GI50 (IGROV-1): > 100 µM (inactive)
GI50 (NCI-H226): > 100 µM (inactive)
GI50 (SK-MEL-28): > 100 µM (inactive)
GI50 (HOP-92): > 100 µM (inactive)
GI50 (BT-549): > 100 µM (inactive)
GI50 (HCT-116): > 100 µM (inactive)
GI50 (SK-MEL-5): > 100 µM (inactive)
GI50 (SR): > 100 µM (inactive)
GI50 (A498): > 100 µM (inactive)
GI50 (DU-145): > 100 µM (inactive)
GI50 (SW-620): > 100 µM (inactive)
GI50 (HOP-62): > 100 µM (inactive)
GI50 (PC-3): > 100 µM (inactive)
GI50 (A549): > 100 µM (inactive)
GI50 (SF-268): > 100 µM (inactive)

CC(=C(C(N)=O)C(N)=O)C1C=C(c2cccs2)CC(c2ccc(Cl)cc2)=C1O (stereo not drawn)
GI50 (UACC-257): 14.5 µM (inactive)
GI50 (MOLT-4): 21.9 µM (inactive)
GI50 (SNB-19): 77.8 µM (inactive)
GI50 (U-251): 35.6 µM (inactive)
GI50 (SF-295): 82.8 µM (inactive)
GI50 (RXF 393): > 100 µM (inactive)
GI50 (CAKI-1): 44.3 µM (inactive)
GI50 (OVCAR-3): 22.3 µM (inactive)
GI50 (CCRF-CEM): 26.2 µM (inactive)
GI50 (RPMI-8226): 20.4 µM (inactive)
GI50 (HCC 2998): 34 µM (inactive)
GI50 (LOX IMVI): 19.8 µM (inactive)
GI50 (SNB-75): 90.6 µM (inactive)
GI50 (ACHN): 52.5 µM (inactive)
GI50 (MDA-MB-231): > 100 µM (inactive)
GI50 (Hs-578T): > 100 µM (inactive)
GI50 (MCF7): 8.95 µM (inactive)
GI50 (TK-10): 45.3 µM (inactive)
GI50 (SK-MEL-2): > 100 µM (inactive)
GI50 (OVCAR-8): 73.6 µM (inactive)
GI50 (T47D): 9.84 µM (inactive)
GI50 (SN12C): 32 µM (inactive)
GI50 (NCI-H23): > 100 µM (inactive)
GI50 (SK-OV-3): > 100 µM (inactive)
GI50 (NCI-H522): 30.3 µM (inactive)
GI50 (HT-29): 39.8 µM (inactive)
GI50 (NCI/ADR-RES): 44.9 µM (inactive)
GI50 (K562): 25 µM (inactive)
GI50 (UACC-62): 25.1 µM (inactive)
GI50 (OVCAR-5): > 100 µM (inactive)
GI50 (MDA-N): 35.1 µM (inactive)
GI50 (EKVX): > 100 µM (inactive)
GI50 (COLO 205): 42 µM (inactive)
GI50 (NCI-H460): 69 µM (inactive)
GI50 (HCT-15): 20.9 µM
GI50 (KM12): 34.7 µM (inactive)
GI50 (786-0): 36.7 µM (inactive)
GI50 (OVCAR-4): 5.51 µM (inactive)
GI50 (UO-31): 16.4 µM (inactive)
GI50 (HL-60): 9.59 µM (inactive)
GI50 (MDA-MB-435): 42.2 µM (inactive)
GI50 (M14): 42.5 µM (inactive)
GI50 (IGROV-1): 35 µM (inactive)
GI50 (NCI-H226): 73.6 µM (inactive)
GI50 (SK-MEL-28): > 100 µM (inactive)
GI50 (HOP-92): 85.9 µM (inactive)
GI50 (BT-549): 16.1 µM (inactive)
GI50 (HCT-116): 8.85 µM (inactive)
GI50 (SK-MEL-5): 20.3 µM (inactive)
GI50 (SR): 31 µM (inactive)
GI50 (A498): 21.5 µM (inactive)
GI50 (DU-145): 63.5 µM (inactive)
GI50 (SW-620): 82.8 µM (inactive)
GI50 (HOP-62): > 100 µM (inactive)
GI50 (PC-3): 9.55 µM (inactive)
GI50 (A549): 88.7 µM (inactive)
GI50 (SF-268): > 100 µM (inactive)

— ChEMBL document CHEMBL1201862, “PubChem BioAssay data set” (2004)
